Assay results published in US7112574B2, “C2,8-disubstituted adenosine derivatives and their different uses” (priority 2001, dated 2006).

What was measured:
human A3 receptor = molecular target: T1, human A3 receptor (Homo sapiens, UniProt P0DMS8); assay: Radioligand binding, displacement of [125I]AB-MECA from human A3 receptor expressed in HEK 293 cells
T1 construct: expressed in transfected cells; host or cells: HEK 293
T1 sequence (P0DMS8 1-318): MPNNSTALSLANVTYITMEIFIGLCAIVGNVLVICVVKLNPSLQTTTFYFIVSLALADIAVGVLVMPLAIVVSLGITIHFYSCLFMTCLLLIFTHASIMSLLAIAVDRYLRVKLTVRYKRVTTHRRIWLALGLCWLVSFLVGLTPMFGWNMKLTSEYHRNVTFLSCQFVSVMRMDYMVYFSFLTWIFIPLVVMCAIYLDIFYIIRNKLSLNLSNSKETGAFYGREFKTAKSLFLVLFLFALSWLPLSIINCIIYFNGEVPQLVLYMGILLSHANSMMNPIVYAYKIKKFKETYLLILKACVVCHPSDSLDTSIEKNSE
Protocol: (§1) Incubations were carried out for 1 hr at 37° C. and were terminated by rapid filtration over Whatman GF/B filters, using a Brandell cell harvester (Brandell, Gaithersburg, Md.). Tubes were washed three times with 3 ml of buffer. Radioactivity was determined in a Beckman 5500B γ-counter. Nonspecific binding was determined in the presence of 10^−5 M R-PIA.
(§2) All compounds prepared were tested in radioligand binding assays to determine their affinities for the adenosine A1 receptor in rat brain cortex, the A2A receptor in rat striatum and the human A3 receptor as expressed in HEK 293 cells (Table 2, hereinafter). The Ki values were computed from the displacement curves obtained by nonlinear regression of the competition curves with the software package Prism (Graph Pad, San Diego, Calif.)
(§3) For the adenosine A1 receptor, the tritiated antagonist, [^3H]-1,3-dipropyl-8-cyclopentylxanthine ([^3H]DPCPX), and for the adenosine A2A receptor, the tritiated antagonist [^3H]ZM 241385 were used. Since radiolabeled antagonists are not commercially available for the adenosine A3 receptor, [125I]AB-MECA, an A3 receptor agonist, was used. Displacement experiments were performed in the absence of GTP.

adenosine A2A receptor = adenosine A2A receptor (Rattus norvegicus, UniProt P30543); assay: biochemical
Protocol: as §1, §2, §3

adenosine A1 receptor = molecular target: T2, adenosine A1 receptor (Rattus norvegicus, UniProt P25099); assay: biochemical; conditions: read-out: % displacement at 10^-5 M, A1
T2 sequence (P25099 1-326): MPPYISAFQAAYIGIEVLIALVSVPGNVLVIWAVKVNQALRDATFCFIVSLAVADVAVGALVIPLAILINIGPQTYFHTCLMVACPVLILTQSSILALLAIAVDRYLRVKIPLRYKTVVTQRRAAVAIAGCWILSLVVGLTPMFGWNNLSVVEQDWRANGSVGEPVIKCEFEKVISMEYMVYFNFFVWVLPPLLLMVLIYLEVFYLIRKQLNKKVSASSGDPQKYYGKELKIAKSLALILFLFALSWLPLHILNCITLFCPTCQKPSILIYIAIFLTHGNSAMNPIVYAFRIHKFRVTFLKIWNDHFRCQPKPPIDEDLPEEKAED
Protocol: as §1, §2, §3

[1] = molecular target: human adenosine A2A receptors (Homo sapiens, UniProt P29274)
Protocol: CHO cells expressing the human adenosine A2A receptors were grown overnight as a monolayer in 24 wells tissue culture plates (400 μl/well; 2×10^5 cells/well). cAMP generation was performed in Dulbecco's Modified Eagles Medium (DMEM)/N-2-hydroxyethylpiperazin-N′-2-ethansulfonic acid HEPES) buffer (0.60 g HEPES/50 ml DMEM pH 7.4). To each well, washed three times with DMEM/HEPES buffer (250 μl), 100 μl DMEM/HEPES buffer, 100 μl adenosine deaminase (final concentration 5 IU/ml) and 100 μl of a mixture of rolipram and cilostamide (final concentration 50 μM each) were added. After incubation for 40 minutes at 37° C., 100 μL agonist was added. After 15 minutes at 37° C., the reaction was terminated by removing the medium and adding 200 μl 0.1 M HCl. Wells were stored at −20° C. until assay.
The amounts of cAMP were determined after a protocol with cAMP binding protein^12 with the following minor modifications. As a buffer was used 150 mM K2HPO4/10 mM EDTA/0.2% Bovine Serum Albumine (BSA) at pH 7.5. Samples (20 μl+30 μl 0.1 M HCl) were incubated for at least 2.5 hours at 0° C. before filtration over Whatman GF/B filters. […] Filters were counted in Packard Emulsifier Safe scintillation fluid (3.5 ml) after 24 hours of extraction.
All compounds prepared were also tested in a functional assay.

CCCC/C=C/c1nc(N)c2nc(NCCC)n([C@@H]3O[C@H](CO)[C@@H](O)[C@H]3O)c2n1 [Compound 19, 2-((E)-1-hexenyl)-8-propylaminoadenosine]
Ki (human A3 receptor): 14.3 ± 2.16 µM
Ki (adenosine A2A receptor): 0.678 ± 0.025 µM
A3/A2A (adenosine A2A receptor; ratio of Ki A3 (human) to Ki A2A (rat)): 21.1
inhibition at 10 µM (adenosine A1 receptor): 49.5%
melting point: 170 to 172 °C
% cAMP production hA2A [1]: 73% (70–76)
